# Values quoted from earlier work as cited in patent publication US7507425B2, “Method for the treatment of cachexia” (The Quigley Corporation, priority 2005, dated 2009).
# Test system: nitric oxide synthase (NOS)
# Conditions: Northern-blot and immunoblotting; macrophages activated with vs without curcumin
compound,measurement,value
COc1cc(/C=C/C(=O)CC(=O)/C=C/c2ccc(O)c(OC)c2)ccc1O [curcumin],levels of mRNA and 130-k Da protein of inducible NOS,significantly reduced levels
